Where two headings read alike, the source gives them in different places.
Legend:
HIF-1α = target: T1, HIF-1α (Homo sapiens, UniProt Q16665); assay: Analysis of HIF-1α protein expression (Western blot) in ARPE-19 cells under mixed hypoxic condition; assay type: cell-based; conditions: concentration range at which HIF-1α expression is reduced by 50% vs untreated control
T1 construct: endogenous in cells; host or cells: ARPE-19 (ATCC CRL-2302)
Description: (§1) ARPE-19 cells (Human retinal pigment epithelial cells, ATCC CRL-2302) were cultured in DMEM/F12 (LM002-08, Welgene) medium containing 10% fetal bovine serum (FBS, 16000-044, Gibco) in an incubator at 37°C with 5% carbon dioxide. When the cells grew sufficiently, they were cultured in experimental culture dishes for protein isolation and medium supernatant acquisition.
(§2) Cells were detached from the culture dish using TrypLE™ Express (Gibco). After centrifugation at 1000 rpm for 3 minutes, the supernatant was removed. The cells were counted and seeded into new culture dishes. Normoxic conditions were maintained by culturing the cells in a 37°C incubator with 5% carbon dioxide, and hypoxic conditions were maintained by culturing the cells in a hypoxic incubator with 1% oxygen, 5% carbon dioxide, and 94% nitrogen gas.
In a disease of macular degeneration, hypoxia is a very important condition, and since the expression of downstream genes is regulated by HIF-1α, a transcription factor that is stabilized in hypoxic conditions, the following experiment was conducted to confirm this.
Mixed hypoxic condition was used for HIF-1α stability experiments, in which hypoxia was induced with 1% oxygen and the stability of HIF-1α was enhanced by treatment with cobalt chloride (CoCl2).
The compounds of each Example were diluted to 0.1 nM, 1 nM, 3 nM, 10 nM, 30 nM, 100 nM, 300 nM, 1 µM, and 10 µM in DMEM/F12 medium without fetal bovine serum, pretreated for 16 hours or 2 hours, and cultured for 1 hour or 24 hours in a mixed hypoxic condition. The cell medium was discarded, and protein lysates were obtained by rapidly treating with protein lysis buffer (RIPA Lysis and Extraction buffer, Thermo Fisher Scientific). LDS (4X Bolt ™ LDS Sample buffer) and reducing agent (10X Bolt ™ Sample Reducing Agent) were added together to the protein lysate, and heated at 70°C for 10 minutes. The lysate was separated by electrophoresis on a 4-12% Bis-Tris gel, transferred to a PVDF membrane, and blocked with 3% BSA (Albumin, Bovine, Fraction V, MPbio). The membrane was incubated overnight at 4°C with a mixture of anti-HIF-1α (ab179483, abcam) and anti-b-actin (MA515739, Invitrogen) antibodies at a ratio of 1:4000. The following day, the membrane was treated with a peroxidase-conjugated secondary antibody for 1 hour at room temperature, and the target protein was expressed using an ECL solution (Clarity ™ Western ECL substrate, Bio-rad) and quantified.
Based on the results of the expression level of HIF-1α in cells treated with compounds diluted from 10 µM to 0.1 nM, the concentration range of the compound at which the expression level of HIF-1α was reduced by 50% or less compared to the untreated control group was derived.

VEGF = assay: Evaluation of VEGF protein secretion level (Human VEGF ELISA) in ARPE-19 cell medium under hypoxic conditions; assay type: cell-based
Description: as §1, §2
The expression of the downstream gene, angiogenesis inducer VEGF, is regulated by HIF-1α, a major transcription factor under hypoxic conditions, and the level of secreted VEGF protein can be quantitatively confirmed through ELISA (Enzyme Linked Immunosorbent Assay, Human VEGF Quantikine ELISA Kit, R&D systems). For this purpose, the following experiment was conducted.
The compounds of each Example were diluted to 0.1 nM, 1 nM, 3 nM, 10 nM, 30 nM, 100 nM, 300 nM, 1 µM and 10 µM in DMEM/F12 medium containing 1% fetal bovine serum, pretreated for 2 hours, and cultured for 24 hours under hypoxic conditions to obtain the cell medium supernatant. The supernatant was centrifuged at 1000 rpm for 3 minutes, and a specific amount was treated with a VEGF ELISA assay kit and the absorbance value was measured at 450 nm to quantitatively confirm the level of VEGF protein (see Table 1 below).
Based on the results of secreted VEGF protein expression levels in cell media treated with compounds diluted at concentrations ranging from 10 µM to 0.1 nM, the concentration range of the compound at which the secreted VEGF protein level was reduced by 50% or less compared to the untreated control group was derived.

[1] = values marked * in the table, mixed hypoxic condition (1% oxygen + CoCl2) for 24 hours, read-out: IC50 HIF-1α, Hypoxia(24h)
[2] = ARPE-19 cells, pretreated 2 hours, 24 hours hypoxic conditions, secreted VEGF in medium supernatant by ELISA, concentration range reducing VEGF by 50% vs untreated control, read-out: IC50 VEGF
[3] = mixed hypoxic condition (1% oxygen + CoCl2) for 1 hour, read-out: IC50 HIF-1α Hypoxia (1 hour)

T1 sequence (Q16665 whole entry): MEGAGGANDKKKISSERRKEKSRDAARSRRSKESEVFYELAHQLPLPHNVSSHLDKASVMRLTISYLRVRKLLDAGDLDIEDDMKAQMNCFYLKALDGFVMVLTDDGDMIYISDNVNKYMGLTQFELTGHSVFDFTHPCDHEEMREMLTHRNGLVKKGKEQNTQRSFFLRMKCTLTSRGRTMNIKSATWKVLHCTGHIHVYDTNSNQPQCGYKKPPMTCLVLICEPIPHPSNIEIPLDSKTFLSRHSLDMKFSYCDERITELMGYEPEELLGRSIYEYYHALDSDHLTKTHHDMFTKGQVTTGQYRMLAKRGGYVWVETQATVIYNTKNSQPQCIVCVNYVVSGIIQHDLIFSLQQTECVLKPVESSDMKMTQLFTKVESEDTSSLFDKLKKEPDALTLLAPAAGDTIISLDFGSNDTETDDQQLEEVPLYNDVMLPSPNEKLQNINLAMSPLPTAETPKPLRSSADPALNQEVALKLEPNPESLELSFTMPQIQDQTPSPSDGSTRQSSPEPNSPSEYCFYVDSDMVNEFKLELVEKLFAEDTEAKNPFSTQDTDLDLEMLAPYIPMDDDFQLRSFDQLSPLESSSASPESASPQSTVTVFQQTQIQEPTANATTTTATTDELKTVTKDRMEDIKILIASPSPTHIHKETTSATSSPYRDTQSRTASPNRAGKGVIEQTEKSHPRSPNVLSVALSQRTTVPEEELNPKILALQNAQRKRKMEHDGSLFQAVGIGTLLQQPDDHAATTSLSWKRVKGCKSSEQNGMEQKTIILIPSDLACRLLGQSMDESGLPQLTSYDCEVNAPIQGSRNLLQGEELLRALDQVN

Row | SMILES | DC50 (HIF-1α; [1]) [nM] | IC50 (VEGF; [2]) [nM] | DC50 (HIF-1α; [3]) [nM] | IC50 (VEGF; ARPE-19 cells, pretreated 2 hours, 24 hours hypoxic conditions, ELISA, read-out: concentration at which the secreted VEGF protein level was suppressed to less than 50%) [nM] | IC50 (VEGF; Experimental Example 2 (HIF-1α Western blot), read-out: concentration at which the expression level of VEGF was suppressed to less than 50%) [nM]
1 | O=C(NCc1cc(F)cc(-c2cnn(-c3cccc(F)c3)c2)c1)c1ncnc2nc(C3CCCC3)[nH]c12 [Example 46, 8-Cyclopentyl-N-(3-fluoro-5-(1-(3-fluorophenyl)-1H-pyrazol-4-yl)benzyl)-7H-purine-6-carboxamide] | < 100 | 100 to 1000 |  |  | 
2 | O=C(NCc1cc(F)cc(-c2cnn(-c3ccoc3)c2)c1)c1ncnc2nc(C3CCCC3)[nH]c12 [Example 124, 8-Cyclopentyl-N-(3-fluoro-5-(1-(furan-3-yl)-1H-pyrazol-4-yl)benzyl)-7H-purine-6-carboxamide] | < 100 | 100 to 1000 |  |  | 
3 | O=C(NCc1cc(F)cc(-c2cnn(-c3ccc(C(F)(F)F)nc3)c2)c1)c1ncnc2nc(C3CCCC3)[nH]c12 [Example 44, 8-Cyclopentyl-N-(3-fluoro-5-(1-(6-(trifluoromethyl)pyridin-3-yl)-1H-pyrazol-4-yl)benzyl)-7H-purine-6-carboxamide] |  | 100 to 1000 | < 100 |  | 
4 | O=C(NCc1cc(F)cc(-c2cnn(-c3ccc(F)cc3)c2)c1)c1ncnc2nc(C3CC(F)C3)[nH]c12 (single isomer, unassigned) [102(B), N-(3-Fluoro-5-(1-(4-fluorophenyl)-1H-pyrazol-4-yl)benzyl)-8-(3-fluorocyclobutyl)-7H-purine-6-carboxamide] | 100 to 1000 | 100 to 1000 |  |  | 
5 | O=C(NCc1cc(F)cc(-c2cnn(-c3ccc(F)cc3)c2)c1)c1ncnc2nc(C34CC(C3)C4)[nH]c12 [Example 99, 8-(Bicyclo[1.1.1]pentan-1-yl)-N-(3-fluoro-5-(1-(4-fluorophenyl)-1H-pyrazol-4-yl)benzyl)-7H-purine-6-carboxamide] | 1000 to 10000 | > 10000 |  |  | 
6 | O=C(NCc1cc(F)cc(-c2nnc(-c3ccc(F)cc3)o2)c1)c1ncnc2nc(C3CCCC3)[nH]c12 [Example 132, 8-Cyclopentyl-N-(3-fluoro-5-(5-(4-fluorophenyl)-1,3,4-oxadiazol-2-yl)benzyl)-7H-purine-6-carboxamide] | 1000 to 10000 | > 10000 |  |  | 
7 | Cn1cc(Nc2cc(F)cc(CNC(=O)c3ncnc4nc(C5CCCC5)[nH]c34)c2)cn1 [Example 8, 8-Cyclopentyl-N-(3-fluoro-5-((1-methyl-1H-pyrazol-4-yl)amino)benzyl)-7H-purine-6-carboxamide] |  | 100 to 1000 | < 100 |  | 
8 | O=C(NCc1cc(F)cc(-c2cnn(-c3ccc(F)nc3)c2)c1)c1ncnc2nc(C3CCCC3)[nH]c12 [Example 47, 8-Cyclopentyl-N-(3-fluoro-5-(1-(6-fluoropyridin-3-yl)-1H-pyrazol-4-yl)benzyl)-7H-purine-6-carboxamide] | < 100 | < 100 |  | < 100 | < 100
9 | O=C(NCc1cc(F)cc(-c2cnn(-c3ccc(F)cc3)c2)c1)c1ncnc2nc(C3CCC(F)(F)C3)[nH]c12 (stereo not drawn) [Example 80, 8-(3,3-Difluorocyclopentyl)-N-(3-fluoro-5-(1-(4-fluorophenyl)-1H-pyrazol-4-yl)benzyl)-7H-purine-6-carboxamide] | < 100 | < 100 |  |  | 

The remaining lines, values ahead:

Row | DC50 (HIF-1α; [1]) [nM] | IC50 (VEGF; [2]) [nM] | DC50 (HIF-1α; [3]) [nM] | IC50 (VEGF; ARPE-19 cells, pretreated 2 hours, 24 hours hypoxic conditions, ELISA, read-out: concentration at which the secreted VEGF protein level was suppressed to less than 50%) [nM] | IC50 (VEGF; Experimental Example 2 (HIF-1α Western blot), read-out: concentration at which the expression level of VEGF was suppressed to less than 50%) [nM] | SMILES
10 | < 100 | 100 to 1000 |  |  |  | O=C(NCc1cc(-c2cnn(-c3ccc(F)cc3)c2)ccc1F)c1ncnc2nc(C3CCCC3)[nH]c12 [Example 56, 8-Cyclopentyl-N-(2-fluoro-5-(1-(4-fluorophenyl)-1H-pyrazol-4-yl)benzyl)-7H-purine-6-carboxamide]
11 | < 100 | 100 to 1000 |  |  |  | [2H]C1([2H])C(c2nc3ncnc(C(=O)NCc4cc(F)cc(-c5cnn(-c6ccc(F)cc6)c5)c4)c3[nH]2)C([2H])([2H])C([2H])([2H])C1([2H])[2H] [Example 153, 8-(Cyclopentyl-2,2,3,3,4,4,5,5-d8)-N-(3-fluoro-5-(1-(4-fluorophenyl)-1H-pyrazol-4-yl)benzyl)-7H-purine-6-carboxamide]
12 | 100 to 1000 | 100 to 1000 |  |  |  | O=C(NCc1cc(F)cc(-c2cnn(-c3ccc(F)cc3)c2)c1)c1ncnc2nc(C34CCC(C3)C4)[nH]c12 [Example 115, 8-(Bicyclo[2.1.1]hexan-1-yl)-N-(3-fluoro-5-(1-(4-fluorophenyl)-1H-pyrazol-4-yl)benzyl)-7H-purine-6-carboxamide]
13 | < 100 | < 100 |  |  |  | O=C(NCc1cc(F)cc(-c2cnn(C3CCCCC3)c2)c1)c1ncnc2nc(C3CCCC3)[nH]c12 [Example 139, N-(3-(1-cyclohexyl-1H-pyrazol-4-yl)-5-fluorobenzyl)-8-cyclopentyl-7H-purine-6-carboxamide]
14 | 100 to 1000 | > 10000 |  |  |  | CCOC(=O)c1ccc(Nc2cc(F)cc(CNC(=O)c3ncnc4nc(C5CCCC5)[nH]c34)c2)cc1 [Example 127, Ethyl 4-((3-((8-cyclopentyl-7H-purine-6-carboxamido)methyl)-5-fluorophenyl)amino)benzoate]
15 | > 10000 | > 10000 |  |  |  | O=C(NCc1cc(F)cc(-c2cnn(-c3ccc(F)cc3)c2)c1)c1ccnc2nc(C3CCCC3)[nH]c12 [Example 107, 2-Cyclopentyl-N-(3-fluoro-5-(1-(4-fluorophenyl)-1H-pyrazol-4-yl)benzyl)-1H-imidazo [4,5-b] pyridine-7-carboxamide]
16 | 100 to 1000 | 1000 to 10000 |  |  |  | O=C(NCc1cc(F)cc(-c2cnn(-c3ccc(F)cc3)c2)c1)c1ncnc2nc(C34CC(F)(C3)C4)[nH]c12 [Example 101, N-(3-fluoro-5-(1-(4-fluorophenyl)-1H-pyrazol-4-yl)benzyl)-8-(3-fluorobicyclo[1.1.1]pentan-1-yl)-7H-purine-6-carboxamide]
17 | 100 to 1000 | 100 to 1000 |  |  |  | O=C1CC[C@H](c2nc3ncnc(C(=O)NCc4cc(F)cc(-c5cnn(-c6ccc(F)cc6)c5)c4)c3[nH]2)C1 [Example 88, (S)-N-(3-fluoro-5-(1-(4-fluorophenyl)-1H-pyrazol-4-yl)benzyl)-8-(3-oxocyclopentyl)-7H-purine-6-carboxamide]
18 |  | 100 to 1000 | < 100 |  |  | O=C(NCc1cc(F)cc(Nc2ccc(F)cc2)c1)c1ncnc2nc(C3CCCC3)[nH]c12 [Example 21, 8-Cyclopentyl-N-(3-fluoro-5-((4-fluorophenyl)amino)benzyl)-7H-purine-6-carboxamide]
19 | 100 to 1000 | 100 to 1000 |  |  |  | O=C(NCc1cccc(-c2cnn(-c3ccc(F)cc3)c2)c1F)c1ncnc2nc(C3CCCC3)[nH]c12 [Example 95, 8-Cyclopentyl-N-(2-fluoro-3-(1-(4-fluorophenyl)-1H-pyrazol-4-yl)benzyl)-7H-purine-6-carboxamide]
20 | < 100 | 100 to 1000 |  |  |  | [2H]c1c([2H])c([2H])c(-n2cc(-c3cc(F)cc(CNC(=O)c4ncnc5nc(C6CCC(F)(F)C6)[nH]c45)c3)cn2)c([2H])c1[2H] (stereo not drawn) [Example 148, 8-(3,3-Difluorocyclopentyl)-N-(3-fluoro-5-(1-(phenyl-d5)-1H-pyrazol-4-yl)benzyl)-7H-purine-6-carboxamide]

— EP4567035A1, “NOVEL COMPOUND AS HYPOXIA-INDUCIBLE FACTOR 1(HIF-1) INHIBITOR OR VASCULAR ENDOTHELIAL GROWTH FACTOR (VEGF) INHIBITOR, AND PHARMACEUTICAL COMPOSITION COMPRISING SAME” (Nextgen Bioscience Co., Ltd., priority 2022, dated 2024)
